Laboratory results reported in PMC11899342, “Novel Triazeneindole Antibiotics: Synthesis and Hit-to-Lead Optimization” (International Journal of Molecular Sciences, 2025).
Like-named read-outs stand apart in the source and are kept apart here.

Tests used:
MRSA clinical isolates [1] = assay: MIC by broth microdilution against multidrug-resistant MRSA clinical isolates; assay type: cell-based, Staphylococcus aureus; details: Staphylococcus aureus, MRSA, read-out: MIC against 8 MRSA strains
Protocol: (§1) Clinical MRSA isolates with multidrug resistance were obtained from the collection of the Research Institute of Antimicrobial Chemotherapy, Smolensk State Medical Academy.
The MICs were determined using a broth microdilution method according to [42]. Briefly, serial dilutions of the tested compounds in 50 µL of Mueller Hinton broth (BD) were prepared in 96-well microplates. The antibiotics vancomycin and linezolid (Sigma-Aldrich, St. Louis, MO, USA) were used as a positive control. Bacterial suspensions of the tested MRSA strains were prepared in the Mueller Hinton broth (BD) with a concentration 1 × 10^6 CFU/mL, and then 50 µL aliquots were added to the prepared microplates. The final concentrations of the antibiotics in the wells were 1, 0.5, 0.25, and 0.125 mg/L, for the tested compounds, and 2 mg/L for vancomycin and linezolid. Negative control (lack of bacterial cells) and growth control (lack of compound) wells were included in all plates. The microplates were incubated at 37 °C for 18 h. The growth was assessed visually after incubation, and the MIC was assumed as the lowest compound concentration at which a noticeable growth of the microorganisms was inhibited (no visible growth). All experiments were conducted in triplicate.

MRSA clinical isolates [2] = assay: Antibiotic susceptibility profile of MRSA clinical isolates (EUCAST breakpoints); assay type: cell-based, Staphylococcus aureus
Description: as §1

CC(=O)NC[C@H]1CN(c2ccc(N3CCOCC3)c(F)c2)C(=O)O1 [Linezolid, linezolid]
S: Drug sensibility profile (MRSA clinical isolates [2]; MRSA strain 1) | Drug sensibility profile (MRSA clinical isolates [2]; MRSA strain 2) | Drug sensibility profile (MRSA clinical isolates [2]; MRSA strain 3) | Drug sensibility profile (MRSA clinical isolates [2]; MRSA strain 4) | Drug sensibility profile (MRSA clinical isolates [2]; MRSA strain 5) | Drug sensibility profile (MRSA clinical isolates [2]; MRSA strain 6) | Drug sensibility profile (MRSA clinical isolates [2]; MRSA strain 7) | Drug sensibility profile (MRSA clinical isolates [2]; MRSA strain 8) | Drug sensibility profile (MRSA clinical isolates [2]; MRSA strain 9) | Drug sensibility profile (MRSA clinical isolates [2]; MRSA strain 10) | Drug sensibility profile (MRSA clinical isolates [2]; MRSA strain 12) | Drug sensibility profile (MRSA clinical isolates [2]; MRSA strain 13) | Drug sensibility profile (MRSA clinical isolates [2]; MRSA strain 14) | Drug sensibility profile (MRSA clinical isolates [2]; MRSA strain 15) | Drug sensibility profile (MRSA clinical isolates [2]; MRSA strain 16) | Drug sensibility profile (MRSA clinical isolates [2]; MRSA strain 17) | Drug sensibility profile (MRSA clinical isolates [2]; MRSA strain 18) | Drug sensibility profile (MRSA clinical isolates [2]; MRSA strain 21) | Drug sensibility profile (MRSA clinical isolates [2]; MRSA strain 23) | Drug sensibility profile (MRSA clinical isolates [2]; MRSA strain 24) | Drug sensibility profile (MRSA clinical isolates [2]; MRSA strain 25) | Drug sensibility profile (MRSA clinical isolates [2]; MRSA strain 26) | Drug sensibility profile (MRSA clinical isolates [2]; MRSA strain 27) | Drug sensibility profile (MRSA clinical isolates [2]; MRSA strain 28) | Drug sensibility profile (MRSA clinical isolates [2]; MRSA strain 29) | Drug sensibility profile (MRSA clinical isolates [2]; MRSA strain 30) | Drug sensibility profile (MRSA clinical isolates [2]; MRSA strain 31) | Drug sensibility profile (MRSA clinical isolates [2]; MRSA strain 34) | Drug sensibility profile (MRSA clinical isolates [2]; MRSA strain 35) | Drug sensibility profile (MRSA clinical isolates [2]; MRSA strain 36) | Drug sensibility profile (MRSA clinical isolates [2]; MRSA strain 40) | Drug sensibility profile (MRSA clinical isolates [2]; MRSA strain 41) | Drug sensibility profile (MRSA clinical isolates [2]; MRSA strain 42) | Drug sensibility profile (MRSA clinical isolates [2]; MRSA strain 43) | Drug sensibility profile (MRSA clinical isolates [2]; MRSA strain 44) | Drug sensibility profile (MRSA clinical isolates [2]; MRSA strain 45) | Drug sensibility profile (MRSA clinical isolates [2]; MRSA strain 46) | Drug sensibility profile (MRSA clinical isolates [2]; MRSA strain 48) | Drug sensibility profile (MRSA clinical isolates [2]; MRSA strain 49) | Drug sensibility profile (MRSA clinical isolates [2]; MRSA strain 50) | Drug sensibility profile (MRSA clinical isolates [2]; MRSA strain 51)
2 µg/mL: MIC (MRSA clinical isolates [1]; Figure 6, MRSA strain 2) | MIC (MRSA clinical isolates [1]; Figure 6, MRSA strain 7) | MIC (MRSA clinical isolates [1]; Figure 6, MRSA strain 8) | MIC (MRSA clinical isolates [1]; Figure 6, MRSA strain 9) | MIC (MRSA clinical isolates [1]; Figure 6, MRSA strain 13) | MIC (MRSA clinical isolates [1]; Figure 6, MRSA strain 21) | MIC (MRSA clinical isolates [1]; Figure 6, MRSA strain 48) | MIC (MRSA clinical isolates [1]; Figure 6, MRSA strain 50)

CN(C)c1cc(NC(=O)CNC(C)(C)C)c(O)c2c1C[C@H]1C[C@H]3[C@H](N(C)C)C(O)=C(C(N)=O)C(=O)[C@@]3(O)C(O)=C1C2=O [Tigecycline]
S: Drug sensibility profile (MRSA clinical isolates [2]; MRSA strain 1) | Drug sensibility profile (MRSA clinical isolates [2]; MRSA strain 3) | Drug sensibility profile (MRSA clinical isolates [2]; MRSA strain 4) | Drug sensibility profile (MRSA clinical isolates [2]; MRSA strain 5) | Drug sensibility profile (MRSA clinical isolates [2]; MRSA strain 6) | Drug sensibility profile (MRSA clinical isolates [2]; MRSA strain 7) | Drug sensibility profile (MRSA clinical isolates [2]; MRSA strain 10) | Drug sensibility profile (MRSA clinical isolates [2]; MRSA strain 14) | Drug sensibility profile (MRSA clinical isolates [2]; MRSA strain 15) | Drug sensibility profile (MRSA clinical isolates [2]; MRSA strain 16) | Drug sensibility profile (MRSA clinical isolates [2]; MRSA strain 18) | Drug sensibility profile (MRSA clinical isolates [2]; MRSA strain 21) | Drug sensibility profile (MRSA clinical isolates [2]; MRSA strain 23) | Drug sensibility profile (MRSA clinical isolates [2]; MRSA strain 24) | Drug sensibility profile (MRSA clinical isolates [2]; MRSA strain 25) | Drug sensibility profile (MRSA clinical isolates [2]; MRSA strain 26) | Drug sensibility profile (MRSA clinical isolates [2]; MRSA strain 27) | Drug sensibility profile (MRSA clinical isolates [2]; MRSA strain 28) | Drug sensibility profile (MRSA clinical isolates [2]; MRSA strain 29) | Drug sensibility profile (MRSA clinical isolates [2]; MRSA strain 30) | Drug sensibility profile (MRSA clinical isolates [2]; MRSA strain 31) | Drug sensibility profile (MRSA clinical isolates [2]; MRSA strain 34) | Drug sensibility profile (MRSA clinical isolates [2]; MRSA strain 35) | Drug sensibility profile (MRSA clinical isolates [2]; MRSA strain 36) | Drug sensibility profile (MRSA clinical isolates [2]; MRSA strain 40) | Drug sensibility profile (MRSA clinical isolates [2]; MRSA strain 41) | Drug sensibility profile (MRSA clinical isolates [2]; MRSA strain 42) | Drug sensibility profile (MRSA clinical isolates [2]; MRSA strain 43) | Drug sensibility profile (MRSA clinical isolates [2]; MRSA strain 44) | Drug sensibility profile (MRSA clinical isolates [2]; MRSA strain 45) | Drug sensibility profile (MRSA clinical isolates [2]; MRSA strain 46) | Drug sensibility profile (MRSA clinical isolates [2]; MRSA strain 48) | Drug sensibility profile (MRSA clinical isolates [2]; MRSA strain 49) | Drug sensibility profile (MRSA clinical isolates [2]; MRSA strain 50) | Drug sensibility profile (MRSA clinical isolates [2]; MRSA strain 51)
R: Drug sensibility profile (MRSA clinical isolates [2]; MRSA strain 2) | Drug sensibility profile (MRSA clinical isolates [2]; MRSA strain 8) | Drug sensibility profile (MRSA clinical isolates [2]; MRSA strain 9) | Drug sensibility profile (MRSA clinical isolates [2]; MRSA strain 12) | Drug sensibility profile (MRSA clinical isolates [2]; MRSA strain 13) | Drug sensibility profile (MRSA clinical isolates [2]; MRSA strain 17)

CN[C@H](CC(C)C)C(=O)N[C@H]1C(=O)N[C@@H](CC(N)=O)C(=O)N[C@H]2C(=O)N[C@H]3C(=O)N[C@H](C(=O)N[C@H](C(=O)O)c4cc(O)cc(O)c4-c4cc3ccc4O)[C@H](O)c3ccc(c(Cl)c3)Oc3cc2cc(c3O[C@@H]2O[C@H](CO)[C@@H](O)[C@H](O)[C@H]2O[C@H]2C[C@](C)(N)[C@H](O)[C@H](C)O2)Oc2ccc(cc2Cl)[C@H]1O [Vancomycin, vancomycin]
S: Drug sensibility profile (MRSA clinical isolates [2]; MRSA strain 1) | Drug sensibility profile (MRSA clinical isolates [2]; MRSA strain 2) | Drug sensibility profile (MRSA clinical isolates [2]; MRSA strain 3) | Drug sensibility profile (MRSA clinical isolates [2]; MRSA strain 4) | Drug sensibility profile (MRSA clinical isolates [2]; MRSA strain 5) | Drug sensibility profile (MRSA clinical isolates [2]; MRSA strain 6) | Drug sensibility profile (MRSA clinical isolates [2]; MRSA strain 7) | Drug sensibility profile (MRSA clinical isolates [2]; MRSA strain 8) | Drug sensibility profile (MRSA clinical isolates [2]; MRSA strain 9) | Drug sensibility profile (MRSA clinical isolates [2]; MRSA strain 10) | Drug sensibility profile (MRSA clinical isolates [2]; MRSA strain 12) | Drug sensibility profile (MRSA clinical isolates [2]; MRSA strain 13) | Drug sensibility profile (MRSA clinical isolates [2]; MRSA strain 14) | Drug sensibility profile (MRSA clinical isolates [2]; MRSA strain 15) | Drug sensibility profile (MRSA clinical isolates [2]; MRSA strain 16) | Drug sensibility profile (MRSA clinical isolates [2]; MRSA strain 17) | Drug sensibility profile (MRSA clinical isolates [2]; MRSA strain 18) | Drug sensibility profile (MRSA clinical isolates [2]; MRSA strain 21) | Drug sensibility profile (MRSA clinical isolates [2]; MRSA strain 23) | Drug sensibility profile (MRSA clinical isolates [2]; MRSA strain 24) | Drug sensibility profile (MRSA clinical isolates [2]; MRSA strain 25) | Drug sensibility profile (MRSA clinical isolates [2]; MRSA strain 26) | Drug sensibility profile (MRSA clinical isolates [2]; MRSA strain 27) | Drug sensibility profile (MRSA clinical isolates [2]; MRSA strain 28) | Drug sensibility profile (MRSA clinical isolates [2]; MRSA strain 29) | Drug sensibility profile (MRSA clinical isolates [2]; MRSA strain 30) | Drug sensibility profile (MRSA clinical isolates [2]; MRSA strain 31) | Drug sensibility profile (MRSA clinical isolates [2]; MRSA strain 34) | Drug sensibility profile (MRSA clinical isolates [2]; MRSA strain 35) | Drug sensibility profile (MRSA clinical isolates [2]; MRSA strain 36) | Drug sensibility profile (MRSA clinical isolates [2]; MRSA strain 40) | Drug sensibility profile (MRSA clinical isolates [2]; MRSA strain 41) | Drug sensibility profile (MRSA clinical isolates [2]; MRSA strain 42) | Drug sensibility profile (MRSA clinical isolates [2]; MRSA strain 43) | Drug sensibility profile (MRSA clinical isolates [2]; MRSA strain 44) | Drug sensibility profile (MRSA clinical isolates [2]; MRSA strain 45) | Drug sensibility profile (MRSA clinical isolates [2]; MRSA strain 46) | Drug sensibility profile (MRSA clinical isolates [2]; MRSA strain 48) | Drug sensibility profile (MRSA clinical isolates [2]; MRSA strain 49) | Drug sensibility profile (MRSA clinical isolates [2]; MRSA strain 50) | Drug sensibility profile (MRSA clinical isolates [2]; MRSA strain 51)
2 µg/mL: MIC (MRSA clinical isolates [1])
